For 15 molecules, Ki, EC50 and Activity results are on record in ChEMBL document CHEMBL3396982, “Design and synthesis of a novel series of [1-(4-hydroxy-benzyl)-1H-indol-5-yloxy]-acetic acid compounds as potent, selective, thyroid hormone receptor β agonists” (Bioorg Med Chem Lett, 2015).

The target in series [1] is T1, Thyroid hormone receptor alpha (Homo sapiens, UniProt P10827).
T1 sequence (P10827 whole entry): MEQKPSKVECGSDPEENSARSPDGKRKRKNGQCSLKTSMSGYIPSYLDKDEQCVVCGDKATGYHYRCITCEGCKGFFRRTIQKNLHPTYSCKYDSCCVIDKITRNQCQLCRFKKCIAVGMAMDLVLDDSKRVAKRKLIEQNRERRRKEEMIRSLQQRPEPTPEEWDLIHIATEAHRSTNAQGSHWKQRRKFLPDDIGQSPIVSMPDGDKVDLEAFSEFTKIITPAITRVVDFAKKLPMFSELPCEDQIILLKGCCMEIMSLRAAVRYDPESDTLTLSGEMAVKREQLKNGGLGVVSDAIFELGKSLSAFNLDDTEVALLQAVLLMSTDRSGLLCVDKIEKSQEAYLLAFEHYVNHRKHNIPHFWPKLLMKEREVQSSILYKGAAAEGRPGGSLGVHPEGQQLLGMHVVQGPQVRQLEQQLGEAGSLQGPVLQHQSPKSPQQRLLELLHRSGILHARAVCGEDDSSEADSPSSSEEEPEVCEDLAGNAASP
The experiment in a line: Displacement of [125I]-L-3,5,3'-triiodothyronine from human TRalpha expressed in human Hela cell lysate measured after overnight incubation by competition binding assays. The series is classed as cell-free.

For series [2], the target named is T2, Thyroid hormone receptor beta (Homo sapiens, UniProt P10828).
T2 sequence (P10828 whole entry): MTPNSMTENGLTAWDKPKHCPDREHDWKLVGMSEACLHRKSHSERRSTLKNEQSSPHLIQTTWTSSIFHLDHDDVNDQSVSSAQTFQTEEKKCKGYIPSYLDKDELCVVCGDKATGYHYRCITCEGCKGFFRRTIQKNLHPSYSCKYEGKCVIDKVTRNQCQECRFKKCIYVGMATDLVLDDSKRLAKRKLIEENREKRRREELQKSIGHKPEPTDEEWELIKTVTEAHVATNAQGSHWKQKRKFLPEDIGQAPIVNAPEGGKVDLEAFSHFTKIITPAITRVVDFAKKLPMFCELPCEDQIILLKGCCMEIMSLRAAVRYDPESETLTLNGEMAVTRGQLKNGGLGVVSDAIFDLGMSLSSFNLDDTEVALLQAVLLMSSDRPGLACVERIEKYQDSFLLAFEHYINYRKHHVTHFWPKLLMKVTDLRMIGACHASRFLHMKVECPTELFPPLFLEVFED
Briefly: Displacement of [125I]-L-3,5,3'-triiodothyronine from human TRbeta expressed in human Hela cell lysate measured after overnight incubation by competition binding assays. The series is classed as cell-free. For orientation: Displacement assays read how much labelled ligand stays bound in the presence of the test substance.

Series [3] concerns the target T2, Thyroid hormone receptor beta. The experiment in a line: Agonist activity at TRbeta (unknown origin) expressed in human HuH7 cells after 24 hrs by Gal4 CTF cell-based assay. Set-up: species or system Huh-7.
Series [4] has as its target T1, Thyroid hormone receptor alpha. The experiment in a line: Agonist activity at TRalpha (unknown origin) expressed in human HuH7 cells after 24 hrs by Gal4 CTF cell-based assay. Set-up: species or system Huh-7.
The subject of series [5] is Rattus norvegicus. Briefly: Increase in HDL level in fructose-fed Sprague-Dawley rat model of dyslipidemia at 10 mg/kg, po qd through oral gavage by size exclusion chromatography relative to vehicle-treated control. The series is classed as functional.
Series [6] concerns Rattus norvegicus. The experiment in a line: Increase in HDL level in fructose-fed Sprague-Dawley rat model of dyslipidemia at 1 mg/kg, po qd through oral gavage by size exclusion chromatography relative to vehicle-treated control. Type of series: functional. (In general: SEC sorts molecules by how far they enter the pores of the column.)
Series [7] has as its system Rattus norvegicus. The experiment in a line: Decrease in triglyceride level in fructose-fed Sprague-Dawley rat model of dyslipidemia at 3 mg/kg, po qd through oral gavage by size exclusion chromatography (Rvb =296 +/- 20 mg/dL). The series is classed as functional.
For series [8], the system named is Rattus norvegicus. The experiment in a line: Decrease in triglyceride level in fructose-fed Sprague-Dawley rat model of dyslipidemia at 0.1 mg/kg, po qd through oral gavage by size exclusion chromatography (Rvb =296 +/- 20 mg/dL). The series is classed as functional.
The subject of series [9] is Rattus norvegicus. Briefly: Decrease in triglyceride level in fructose-fed Sprague-Dawley rat model of dyslipidemia at 1 mg/kg, po qd through oral gavage by size exclusion chromatography (Rvb =296 +/- 20 mg/dL). Type of series: functional.
Series [10] relates to Rattus norvegicus. Briefly: Toxicity in fructose-fed Sprague-Dawley rat model of dyslipidemia assessed as effect on food intake at 0.1 to 10 mg/kg, po qd through oral gavage. Type of series: organism-based. Set-up: dose 0.1-10 mg/kg, route oral. The settings on record: in vivo.
The subject of series [11] is Rattus norvegicus. Briefly: Decrease in triglyceride level in fructose-fed Sprague-Dawley rat model of dyslipidemia at 10 mg/kg, po qd through oral gavage by size exclusion chromatography (Rvb =296 +/- 20 mg/dL). Type of series: functional.
Series [12] relates to Rattus norvegicus. Briefly: Decrease in triglyceride level in fructose-fed Sprague-Dawley rat model of dyslipidemia at 0.3 mg/kg, po qd through oral gavage by size exclusion chromatography (Rvb =296 +/- 20 mg/dL). The series is classed as functional.
Series [13] relates to Rattus norvegicus. Briefly: Increase in HDL level in fructose-fed Sprague-Dawley rat model of dyslipidemia at 0.3 mg/kg, po qd through oral gavage by size exclusion chromatography relative to vehicle-treated control. Type of series: functional.
Series [14] has as its system Rattus norvegicus. The experiment in a line: Increase in HDL level in fructose-fed Sprague-Dawley rat model of dyslipidemia at 3 mg/kg, po qd through oral gavage by size exclusion chromatography relative to vehicle-treated control. The series is classed as functional.
In series [15] the test system is Rattus norvegicus. The experiment in a line: Increase in HDL level in fructose-fed Sprague-Dawley rat model of dyslipidemia at 0.1 mg/kg, po qd through oral gavage by size exclusion chromatography relative to vehicle-treated control. Type of series: functional.

As for `Cc1cn(Cc2ccc(O)c(C3CCCCC3)c2)c2ccc(OCC(=O)O)cc12`, the Ki turned out to be 200 nM in series [1] and 8.04 nM in series [2].
On to `Cc1cn(Cc2ccc(O)c(Cc3ccccc3)c2)c2ccc(OCC(=O)O)cc12`, for which the EC50 was 406 nM in series [3] and 2470 nM in [4]. Further, the figures for the inhibition constant (Ki) in series [1] and in [2] were 36.5 nM and 0.54 nM, respectively.
With `Cc1cc(OCC(=O)O)cc2ccn(Cc3ccc(O)c(C(C)C)c3)c12`, the figures for the inhibition constant Ki in series [1] and in series [2] were 1.09 nM and 0.26 nM, respectively.
The like results for `Cc1cn(Cc2ccc(O)c(C3CCCC3)c2)c2ccc(OCC(=O)O)cc12` were, in that order, 32.3 nM and 0.64 nM.
The like results for `Cc1cn(Cc2ccc(O)c(C(C)(C)C)c2)c2ccc(OCC(=O)O)cc12` were, in that order, 9.98 nM and 0.3 nM.
Consider `CC(C)c1cc(Cn2ccc3cc(OCC(=O)O)cc(Cl)c32)ccc1O`, for which the Ki was found to be 0.35 nM in series [1] and 0.07 nM in series [2].
For `Cc1cn(Cc2ccc(O)c(C(C)C)c2)c2ccc(OCC(=O)O)cc12`, the Activity with Rattus norvegicus [5] is 35%; in the series with Rattus norvegicus [6], 55%; in the series with Rattus norvegicus [7], 149 mg/dL; with Rattus norvegicus [8] it was 204 mg/dL; in the series on Rattus norvegicus [9], 177 mg/dL; in the series with Rattus norvegicus [10] it was “Non-toxic”. The Activity in the series on Rattus norvegicus [11] was determined as 106 mg/dL; in the series with Rattus norvegicus [12], 214 mg/dL; in the series with Rattus norvegicus [13], 39%; with Rattus norvegicus [14], 42%; in the series with Rattus norvegicus [15], 22%. Moreover, the Ki was determined as 7.74 nM in series [1] and 0.38 nM in series [2].
For `Cc1cc2cc(OCC(=O)O)cc(Cl)c2n1Cc1ccc(O)c(C(C)C)c1`, the results for the Ki in [1] and in [2] were 0.38 nM and 0.04 nM, respectively.
The like results for `Cc1cn(Cc2ccc(O)c(C(C)C)c2)c2c(C)cc(OCC(=O)O)cc12` were, in that order, 2.77 nM and 0.18 nM.
In the case of `Cc1cn(Cc2ccc(O)c(CC3CCCCC3)c2)c2ccc(OCC(=O)O)cc12`, the inhibition constant (Ki) is 46.6 nM in series [1] and 1.11 nM in series [2].
With `Cc1cn(Cc2ccc(O)c(-c3ccccc3)c2)c2ccc(OCC(=O)O)cc12`, the figures for the inhibitory constant (Ki) in series [1] and in series [2] were 89.9 nM and 3.14 nM, respectively.
As for `Cc1cc(OCC(=O)O)cc2cc(C)n(Cc3ccc(O)c(C(C)C)c3)c12`, the Ki in series [1] was found to be 2.05 nM; in series [2], 0.14 nM.
Take `Cc1cn(Cc2ccc(O)c(C(C)C)c2)c2c(Cl)cc(OCC(=O)O)cc12`: the Ki turned out to be 0.51 nM in series [1] and 0.09 nM in [2].
Regarding `CC(C)c1cc(Cn2ccc3cc(OCC(=O)O)ccc32)ccc1O`, the Ki in series [1] came to 13.5 nM; in series [2] it was 1.04 nM.
Turning to `Cc1cc2cc(OCC(=O)O)ccc2n1Cc1ccc(O)c(C(C)C)c1`, the values for the Ki in series [1] and in series [2] were 16.3 nM and 1.12 nM, respectively.

In general, Ki refers to a dissociation constant, usually derived from enzyme kinetics or from competition with a known ligand. Broadly, the EC50 is the midpoint of the concentration-response curve. A low value points to higher potency in that assay.
